Source: patent US20230355498A1, “HAIR GROWTH AGENT” (ADJUVANT HOLDINGS CO., LTD., priority 2020, published 2023)

What was measured:
[1] = tested on: human dermal papilla cells; assay: Dermal papilla cell growth promotion (Cell Count Reagent SF, absorbance 450 nm); format: cell-based; settings: FIG. 3
Procedure: Human dermal papilla cells (Catalog No. CA602t05a; derived from person; Toyobo Co., Ltd. (Japan)) were purchased, testing and evaluation being carried out with maintenance and culture of cells being performed as described in the protocol.
As drugs for testing, drug solutions consisting of culture medium for human dermal papilla cells containing palmitoyl dipeptide-5 diaminohydroxybutyrate in the following respective concentrations (final concentrations) were prepared, and these were used. • Working Example 1: 11.54709375 μM • Working Example 2: 23.0941875 μM • Working Example 3: 46.188375 μM • Working Example 4: 92.37675 μM • Working Example 5: 184.7535 μM • Working Example 6: 369.507 μM
A 96-well plate was seeded with human dermal papilla cells so as to obtain 1×10^3 thereof per well. […] After this had been added thereto, absorbance (measurement wavelength 450 nm; reference wavelength 620 nm) of the culture supernatant was measured. Based on these values, the cell growth rates at the respective wells were calculated, at which time the cell growth rate of the control group at which nothing had been added was taken to be 100%.

FGF-7 gene = FGF-7 gene expression in human dermal papilla cells (real-time PCR, GAPDH internal standard); format: cell-based; settings: 24 hours, FIG. 4
Procedure: Testing and evaluation were carried out with maintenance and culture of human dermal papilla cells being performed in the same manner as at Exemplary Test 3, above.
As drugs for testing, drug solutions of the following respective concentrations (final concentrations) were prepared and used. • Comparative Example 1: 100 μM adenosine • Working Example 1: 1 μM palmitoyl dipeptide-5 diaminohydroxybutyrate • Working Example 2: 10 μM palmitoyl dipeptide-5 diaminohydroxybutyrate • Working Example 3: 300 μM palmitoyl dipeptide-5 diaminohydroxybutyrate
A 24-well plate was seeded with human dermal papilla cells so as to obtain 6×10^3 thereof per well. […]
Following culture, total RNA was extracted from the respective wells and was recovered, and this was reverse-transcribed into cDNA. […] The GAPDH gene was used as an internal standard, the amount of FGF-7 gene expression being calculated relative to the negative control group.
A FastGene RNA Basic Kit (Catalog No. FG-80250; Nippon Genetics Co., Ltd. (Japan)) was used to recover total RNA from cells. […] Concentration of the recovered RNA was measured using a NanoDrop Lite (Catalog No. ND-LITE; Thermo Fisher Scientific K.K.), and this was stored at −80° C. until the following cDNA creation procedure.
A FastGene scriptase II cDNA synthesis 5× Ready Mix (Catalog No. NE-LS641; Nippon Genetics Co., Ltd. (Japan)) was used to synthesize cDNA. […]

[2] = tested on: hair shafts from skin samples transplanted in Balb/c nu/nu mice; assay: Hair-diameter-increasing activity: hair shaft diameter of zigzag hairs that completed the second cycle; format: in vivo, mouse
Procedure: Measurement of increase in hair diameter was carried out using hair shafts that had completed the second cycle at the foregoing Exemplary Test 1. Of the hair shafts that were collected, three zigzag hairs were used for measurement of increase in hair diameter. Three locations were selected in regions where diameter was large in the central portions thereof using a square 100 μm on a side. For each of the selected regions, five different locations were further selected, and hair shaft diameter of the zigzag hairs thereat was measured to evaluate the degree to which increase in hair diameter had occurred.

[3] = tested on: skin samples derived from mouse dorsal body hair skin (C57BL/6N) grafted onto Balb/c nu/nu mice; assay: Hair growth activity: hair shaft length follow-up at transplanted skin samples after topical application; format: in vivo
Procedure: C57BL/6N mice (male) and Balb/c nu/nu mice (female) were purchased from Japan SLC, Inc.(Japan) and bred, and were thereafter made available for the following testing. Note that the testing and breeding of animals complied with pertinent laws, regulations, ordinances, and guidelines, and was performed with the approval of the Experimental Ethics Review Board of the Institute of Physical and Chemical Research.
The following reagents were respectively prepared. • Placebo: 60% aqueous ethanol solution • Working Example 1: 0.05% solution of palmitoyl • dipeptide-5 diaminohydroxybutyrate (3) Preparation of Skin Samples Derived from Mouse Dorsal Body Hair Skin
To collect dorsal body hair skin in the form of anagen stage VI skin 12 to 14 days following depilation, C57BL/6N mice of age 7 to 8 weeks were depilated at locations where dorsal body hair skin was intended to be collected, and were bred for 12 to 14 days. The depilated C57BL/6N mice were thereafter euthanized by cervical dislocation, following which a suitable amount of dorsal body hair skin was collected from the locations at which dorsal body hair skin was intended to be collected.
The collected skin was immersed in DMEM culture medium (hereinafter “DMEM 10”) which contained 10 mM HEPES, 10% fetal bovine serum, and 1% penicillin/streptomycin solution. The collected dorsal body hair skin was grasped with bent-nose curved tweezers and was treated by immersion for 10 seconds in a sterilizing solution. Sterilization treatment was performed by carrying out treatment with 7% povidone iodine solution two times, treatment with PBS (-) three times, and treatment with DMEM 10 two times, in this order, with fresh solutions respectively being used each time. Following sterilization treatment, these were immersed in clean DMEM 10.
Following sterilization treatment, the dorsal body hair skin was cut into pieces and formed into blocks. The transparent connective tissue which adhered to the cutaneous muscle layer of the skin was excised therefrom using curved scissors, and hair groups were cut into rectangular strips in parallel fashion with respect to the direction of the wave of the hair. At this time, these were cut into blocks such that there were 6 rows of hair follicles along the long axis, adjustment having been carried out so that there were 5 rows of hair follicles along the short axis.
The skin samples derived from dorsal body hair skin that were prepared in accordance with the foregoing were grafted onto Balb/c nu/nu mice of age 4 to 6 weeks.
More specifically, mice were anesthetized in the usual way using isoflurane gas. The dorsal area of the mice was then disinfected using 7% povidone iodine solution, following which the mice were made to assume a naturally recumbent posture. In addition, a Mani ophthalmic knife (Mani, Inc.; Japan) was used to pierce the skin at the dorsal area of the mice, the grafts which were formed extending from the epidermal layer of the skin to the subdermal layer. The skin samples derived from dorsal body hair skin were inserted into the grafts formed thereat in such fashion as to cause the hair groups to be directed toward the body surface side of the grafts. Skin sample transplanted depth was adjusted so as to cause the top portion of the hair group to be in a state such that it was exposed at the top portion of the graft. To protect the grafts, Nurseban (registered trademark) (Sunplanet Co., Ltd.; Japan) and surgical tape (3M Japan Limited; Japan) were then used as protective tape to cover the grafts at which the skin samples derived from dorsal body hair skin had been transplanted. The protective tape was removed 5 to 7 days following transplantation, and survival of the transplanted skin samples derived from dorsal body hair skin was determined by visual inspection or digital microscopy (Keyence Corporation: Japan), after which follow-up observation was carried out.
For the first hair cycle, 60% aqueous ethanol solution was applied thereto as placebo. […]

[4] = 0.05% solution, second hair cycle vs placebo applied in first hair cycle
[5] = solution containing 0.05%, applied at transplanted skin samples in mice

With “palmitoyl dipeptide-5 diaminohydroxybutyrate” the “Cell growth rate as compared with control group at which nothing had been added (control = 100%)” value ([1]; 11.54709375 to 369.507 μM (Working Examples 1 to 6), 24, 48 or 72 hours) was “increase in cell growth rate”, the “Concentration dependence of cell growth” value ([1]; 11.54709375 to 369.507 μM, peak at concentration of Working Example 5 (184.7535 μM)) was “induced cell growth in concentration-dependent fashion” and the “Amount of expression of the FGF-7 gene as compared with control group at which nothing had been added” value (FGF-7 gene; 1 μM and 10 μM (Working Examples 1 and 2)) was “increase in the amount of expression of the FGF-7 gene”. The “Amount of expression of the FGF-7 gene compared with 100 μM adenosine (Comparative Example 1)” value (FGF-7 gene; increasing the amount added) was “greater than that which was produced as a result of action of adenosine”, the “Hair diameter as compared with 60% aqueous ethanol control (in words)” value ([2]; hair shafts which had completed the second cycle) was “clear increase in hair diameter” and the “Hair shaft diameter: Percent increase (%)” value ([2]; second hair cycle vs placebo applied in first hair cycle) was 124%. The “Hair shaft diameter (μm)” value ([2]; zigzag hairs, second hair cycle, 0.05% solution, placebo (first hair cycle) 18.5 ± 3.1, ** p<0.01) was 22.9 ± 2.5 ** μm, the “Hair shaft elongation rate (mm/day)” value ([3]; 0.05% solution applied topically, second hair cycle, placebo (first hair cycle) 0.38 ± 0.06) was 0.39 ± 0.06 mm/day and the “Maximum hair shaft length (mm)” value ([3]; 0.05% solution applied topically, second hair cycle, placebo (first hair cycle) 4.9 ± 0.4, * p<0.05) was 5.2 ± 0.2 * mm. For the same substance, the “Hair shaft elongation rate: Percent change relative to reference data” value [3, 4] was 100.63%, the “Maximum hair shaft length: Percent change relative to reference data” value [3, 4] was 105.19% and the “Hair growth activity (in words)” value ([3]; solution containing 0.05%) was “exhibit hair growth activity”. The “Hair shaft elongation rate as compared with reference data (in words)” value [3, 5] was “improvement in hair shaft elongation rate” and the “Maximum hair shaft length as compared with reference data (in words)” value [3, 5] was “significant improvement”.
